# Source: patent US8722626B2, “Method for controlling fibrosis and other pathological deposits in tissues comprising administering a GHRP-6 composition” (Centro de Ingenieria Genetica y Biotecnologia, priority 2006, dated 2014)
# Legend:
# [1] = test system: transgenic mice over-expressing one mutated form of the NOTCH 3 gene; assay: Dementia of vascular origin: transgenic mice over-expressing mutated NOTCH 3 gene (CADASIL model, Example 6); assay type: in vivo, mouse; set-up: SODt (oxidative stress marker) / Cabalase (oxidative stress marker) / HPT (oxidative stress marker) / MDA (oxidative stress marker): unit not given here; details: 100 μg/kg i.p. twice a week, 16 weeks
# Method: This experiment was conducted to evaluate the efficacy of pharmaceutical compositions indistinctly containing one of the peptides GHRP-6, GHRP-2, hexarelin or ghrelin on the central neurofunctional involution process in transgenic mice over-expressing one mutated form of the NOTCH 3 gene in blood vessel smooth muscle cells. These animals develop in terms of months an arteriopathy similar to that of the CASADIL disease, referred to the descriptive memory, and is occurring as one of the main causes of vascular dementia. In these animals, vascular lesions also include retinal-cerebral, cerebral and cochlear vasculopathies. The beta-amiloid material present in the brain and blood vessels, the deposit of osmophilic granular material in brain and meningeal artery walls and their reduced lumen are histopathologically relevant. White-pale zones, microinfarction and hemorrhagic foci zones appear in the brain and its main nervous trunks.
# Eighteen- to twenty-months-old male mice were employed when evidenced the symptoms of the disease. The animals were randomly assigned to the following experimental treatment groups: • A—Placebo group receiving the physiological saline solution. • B—Group receiving GHRP-6 at a 100 μg/kg dosage. • C—Group receiving GHRP-2 at a 100 μg/kg dosage. • D—Group receiving Ghrelin at a 100 μg/kg dosage. • E—Group receiving Hexarelin at a 100 μg/kg dosage.
# Treatments were applied twice a week during 16 weeks by intraperitoneal route. When treatments concluded, autopsy studies were conducted irrespective of the clinical improvement evidenced in a great number of animals treated. Brain tissue samples including meningeal tissues were collected for biochemical and histopathological determinations. The animals received anesthesia overdosed and subjected to intra-cardiac perfusion with cold physiological saline solution to wash off the blood present in the encephala. The encephala were extracted and one encephalon was frozen in dry-ice and the other was fixed in 4% para-formaldehyde neutral. Samples were cryo-sliced at 10 μm and slices were stained with hematoxylin/eosin, Congo Red, or incubated with an antibody specific for the beta-amiloid protein. Morphometric procedures were carried out by microscopic imaging capture by a camera connected to the microscope, and the images were analyzed with the DIGIPAT software.
# Number of fibrillar deposits of beta-amiloid in blood vessels.
# Number of sub-cortical infarctions.
# Number of sub-cortical hemorrhages.
# Brain concentration of myo-inositol as indicator of aging and brain metabolism deterioration (μmol/g of tissue).
# Brain oxidative stress markers.
# [2] = test system: hepatic fibrosis in male Wistar rats (bile duct ligation); assay: Reverting hepatic fibrosis induced by ligation of the common bile duct in rats (Example 1); assay type: in vivo, rat; set-up: SODt (oxidative stress marker) / Catalase (oxidative stress marker) / HPT (oxidative stress marker) / MDA (oxidative stress marker): unit not given here; details: for Grade 0 (null) hepatic fibrosis, animals per group / Grade 1 (moderate) hepatic fibrosis, animals per group / Grade 2 (limited) hepatic fibrosis, animals per group / Grade 3 (severe) hepatic fibrosis, animals per group / Grade 4 (very severe) hepatic fibrosis, animals per group: three weeks; for GGT serum level / GOT serum level / GPT serum level / Content of OH—P (hydroxiproline) in liver: end of three weeks of treatment; for Catalase (oxidative stress marker) / HPT (oxidative stress marker) / MDA (oxidative stress marker) / SODt (oxidative stress marker): liver samples, end of third week of treatment
# Method: The present experiment was conducted to evaluate the effect of the GHRP-6-based pharmaceutical composition on reverting the hepatic fibrosis in rats. Hepatic fibrosis was induced in male Wistar rats of 250 g of average body weight by ligating the external bile duct. For this purpose, rats were anesthetized with a ketamine/xylazine combination and subjected to laparotomy to expose the common bile duct. The duct was double-ligated with chromium catgut 4-0. After surgery, animals were randomly distributed into 3 experimental groups of 20 rats each: (1) Control placebo group, receiving physiological saline solution, (2) Group receiving the GHRP-6 at a 100 μg/kg dosage, and (3) Group receiving the GHRP-6 at a 400 μg/kg dosage. Treatments were daily administered during three weeks after inducing the fibrosis of the liver parenchyma. All the treatments were started three weeks after the appearance of fibrosis. The follow up of the hepatic damage was conducted by weekly ultrasound examinations of the projection area of this organ, the progress of serum levels of GOT and GPT transaminases, gamma glutamyl transferase (GGT) levels and the volume of ascitis. Treatments with GHRP-6 or placebo were applied by the intraperitoneal route once daily. When treatments concluded, animals were sacrificed and blood serum and the liver were collected. Liver fragments were fixed in formalin neutral and processed by hematoxylin/eosin staining, or by Masson's trichromic staining, to evaluate the general damage and the severity of fibrotic indurations. Other fragments of liver tissues were stored at −70° C. until processing to determine the content of hydroxiproline by acid hydrolysis in 1N HCl, and also the intrahepatic levels of redox metabolism markers. Biochemical determinations were carried out by calculating the total protein content by the Bradford's method.
# [3] = Dosage I: 100 μg/kg i.p. once daily, N = 16
# [4] = Dosage I: 100 μg/kg i.p. once daily
# [5] = Dosage II: 400 μg/kg i.p. once daily, N = 20
# [6] = Dosage II: 400 μg/kg i.p. once daily
substance,measurement,setting,value
GHRP-6,Cabalase (oxidative stress marker),[1]; brain,51.5 ± 16.01
same,Cerebral Myo-inositol,[1]; brain,12.36 ± 5.64 μmol/g of tissue
same,HPT (oxidative stress marker),[1]; brain,101.7 ± 22.09
same,MDA (oxidative stress marker),[1]; brain,0.23 ± 0.05
same,SODt (oxidative stress marker),[1]; brain,12327.31 ± 55.1
same,No. of blood vessels positive to Congo Red,[1]; cerebral tissues,16.31 ± 5.33
same,No. of blood vessels positive to Nissl,[1]; cerebral tissues,14.22 ± 8.15
same,No. of hemorrhagic foci.,[1]; cerebral tissues,19.05 ± 5.14
same,No. of subcortical infarctions.,[1]; cerebral tissues,26.79 ± 4.19
same,"Grade 0 (null) hepatic fibrosis, animals per group",[2]; [3],5
same,"Grade 1 (moderate) hepatic fibrosis, animals per group",[2]; [3],9
same,"Grade 2 (limited) hepatic fibrosis, animals per group",[2]; [3],2
same,"Grade 3 (severe) hepatic fibrosis, animals per group",[2]; [3],0
same,"Grade 4 (very severe) hepatic fibrosis, animals per group",[2]; [3],0
same,GGT serum level,[2]; [4],71.53 ± 22.14 U/I
same,GOT serum level,[2]; [4],61.58 ± 16.10 IU/I
same,GPT serum level,[2]; [4],81.71 ± 30.90 IU/I
same,Content of OH—P (hydroxiproline) in liver,[2]; [3],56.71 ± 8.11 μg/g of total proteins
same,"Grade 0 (null) hepatic fibrosis, animals per group",[2]; [5],8
same,"Grade 1 (moderate) hepatic fibrosis, animals per group",[2]; [5],11
same,"Grade 2 (limited) hepatic fibrosis, animals per group",[2]; [5],1
same,"Grade 3 (severe) hepatic fibrosis, animals per group",[2]; [5],0
same,"Grade 4 (very severe) hepatic fibrosis, animals per group",[2]; [5],0
same,GGT serum level,[2]; [6],25.56 ± 8.63 U/I
same,GOT serum level,[2]; [6],30.41 ± 6.11 IU/I
same,GPT serum level,[2]; [6],60.64 ± 19.87 IU/I
same,Content of OH—P (hydroxiproline) in liver,[2]; [5],16.15 ± 1.025 μg/g of total proteins
same,Deposit of collagenous and extracellular materials in liver parenchyma (overall result),"[2]; ligation of the common bile duct, morphological and biochemical data",eradicate and control the deposit of collagenous and extracellular materials in liver parenchyma
same,Catalase (oxidative stress marker),[2]; Dosage I: 100 μg/kg,68.50 ± 12.73
same,HPT (oxidative stress marker),[2]; Dosage I: 100 μg/kg,43.06 ± 1.83
same,MDA (oxidative stress marker),[2]; Dosage I: 100 μg/kg,0.14 ± 0.02
same,SODt (oxidative stress marker),[2]; Dosage I: 100 μg/kg,11058.07 ± 744.61
same,Catalase (oxidative stress marker),[2]; Dosage II: 400 μg/kg,31.50 ± 4.3
same,HPT (oxidative stress marker),[2]; Dosage II: 400 μg/kg,21.16 ± 1.71
same,MDA (oxidative stress marker),[2]; Dosage II: 400 μg/kg,0.08 ± 0.01
same,SODt (oxidative stress marker),[2]; Dosage II: 400 μg/kg,21029.87 ± 498.28
